Values after ≈ are worked out from the molar mass of the structure shown. Read-outs that look alike come from different tables or passages of the source.
How the values were obtained:
[1] = system: Klebsiella pneumoniae ATCC 43816; assay: microbe, parasite or virus in culture; assay type: cell-based; settings: ATCC43816
[2] = system: S. epidermidis PAS9002 (SPase S31P); assay type: cell-based, Staphylococcus epidermidis; settings: Ser to Pro mutation at position 31 of SpsIB
[3] = system: human HeLa 229 cells; settings: none observed up to the highest concentration examined
[4] = system: Streptococcus pyogenes M1-5448; assay: microbe, parasite or virus in culture; assay type: cell-based
[5] = system: wild type S. aureus 8325; assay: microbe, parasite or virus in culture; assay type: cell-based, Staphylococcus aureus
[6] = biological target: P84S variant of truncated E. coli SPase (Escherichia coli, UniProt P00803, P84S); assay: Equilibrium binding, arylomycin fluorescence; settings: micelles; average of three independent experiments
[7] = system: spsB(S29P) S. epidermidis RP62A; assay: microbe, parasite or virus in culture; assay type: cell-based, Staphylococcus epidermidis
[8] = system: lepB(P29S) S. aureus 8325; assay: microbe, parasite or virus in culture; assay type: cell-based, Staphylococcus aureus; settings: Table 3, P3 position derivatives; unit not given
[9] = system: Streptococcus pneumoniae R800; assay: microbe, parasite or virus in culture; assay type: cell-based
[10] = system: Lactococcus lactis; assay: microbe, parasite or virus in culture; assay type: cell-based; settings: several values = different isolates/subspecies
[11] = system: lepB(P84L) E. coli MG1655; assay: microbe, parasite or virus in culture; assay type: cell-based, Escherichia coli; settings: Table 3, P3 position derivatives; unit not given
[12] = system: Clostridium bolteae; assay: microbe, parasite or virus in culture; assay type: cell-based; settings: Enterocloster bolteae
[13] = system: Clostridium difficile; assay: microbe, parasite or virus in culture; assay type: cell-based; settings: Clostridioides difficile
[14] = system: Staphylococcus aureus; assay type: cell-based; settings: several values = heterogeneity within different strains
[15] = system: Yersinia pestis Kim+6; assay: microbe, parasite or virus in culture; assay type: cell-based
[16] = system: Streptococcus agalactiae COH-1; assay: microbe, parasite or virus in culture; assay type: cell-based; settings: Streptococcus agalactiae, COH1
[17] = system: Lactobacillus gasseri ATCC 19992; assay: microbe, parasite or virus in culture; assay type: cell-based; settings: ATCC19992
[18] = system: Brevibacillus brevis ATCC 8246; assay: microbe, parasite or virus in culture; assay type: cell-based; settings: ATCC8246
[19] = system: E. coli and P. aeruginosa serine mutants; assay: MIC after permeabilizing with polymyxin B nonapeptide; assay type: cell-based
[20] = system: Clostridium perfringens; assay: microbe, parasite or virus in culture; assay type: cell-based
[21] = system: wild type P. aeruginosa PAO1; assay: microbe, parasite or virus in culture; assay type: cell-based, Pseudomonas aeruginosa
[22] = system: lepB(P84L) P. aeruginosa PAO1; assay: microbe, parasite or virus in culture; assay type: cell-based, Pseudomonas aeruginosa
[23] = system: S. aureus Rosenbach 328; assay: microbe, parasite or virus in culture; assay type: cell-based; settings: Staphylococcus aureus; MRSA strain
[24] = system: Rhodococcus erythropolis; assay: microbe, parasite or virus in culture; assay type: cell-based
[25] = system: Enterococcus faecalis; assay: microbe, parasite or virus in culture; assay type: cell-based
[26] = system: Staphylococcus haemolyticus; assay: microbe, parasite or virus in culture; assay type: cell-based
[27] = system: Corynebacterium efficiens DSM 44549; assay: microbe, parasite or virus in culture; assay type: cell-based
[28] = biological target: truncated wild type E. coli SPase (Escherichia coli, UniProt P00803); assay: Equilibrium binding, arylomycin fluorescence; settings: micelles; average of three independent experiments
[29] = system: Chlamydia trachomatis; assay: microbe, parasite or virus in culture; assay type: cell-based; settings: eradication from human HeLa 229 cells, 24 hours
[30] = system: Bacteroides fragilis; assay: microbe, parasite or virus in culture; assay type: cell-based
[31] = biological target: full-length P29S mutant S. aureus SPase (Ser-variant) (Staphylococcus aureus, UniProt P0A070, P29S); assay: Equilibrium binding, arylomycin fluorescence
[32] = system: Lactobacillus acidophilus ATCC 4356; assay: microbe, parasite or virus in culture; assay type: cell-based; settings: ATCC4356
[33] = system: Bacillus subtilis 168; assay: microbe, parasite or virus in culture; assay type: cell-based
[34] = system: wild type S. epidermidis RP62A; assay: microbe, parasite or virus in culture; assay type: cell-based, Staphylococcus epidermidis; settings: for MIC: Sensitive strain (SPase without the resistance-conferring Pro)
[35] = system: E. coli strains harboring the indicated amino acid at SPase residue 84; assay: microbe, parasite or virus in culture; assay type: cell-based; settings: Escherichia coli
[36] = biological target: full-length wild type S. aureus SPase (Pro-variant) (Staphylococcus aureus, UniProt P0A070); assay: Equilibrium binding, arylomycin fluorescence
[37] = Staphylococcus epidermidis, read-out: MIC
[38] = Table 3, P3 position derivatives, unit not given

CCCCCCCCCCCCCCCC(=O)N(C)[C@H](CO)C(=O)N[C@H](C)C(=O)NCC(=O)N(C)[C@@H]1C(=O)N[C@@H](C)C(=O)N[C@H](C(=O)O)Cc2ccc(O)c(c2)-c2cc1ccc2O [Arylomycin C16, arylomycin C16]
MIC [1]: > 128 µg/mL | fold elevated MIC compared to the wild type strain [2]: greater than 256 fold | concentration with adverse effects on the human cells [3]: > 20 µg/mL | MIC [4]: 16 µg/mL (≈ 18.2 µM) | MIC ([4]; Streptococcus pyogenes, M15448, read-out: MIC): 8 µg/mL (≈ 9.08 µM) | MIC ([4]; listed as arylomycin A-C16): 8 µg/mL (≈ 9.08 µM) | activity in words [5]: no activity | MIC ([5]; Staphylococcus aureus, Resistant strain (wild type), read-out: MIC): > 64 µg/mL | Kd [6]: 39 ± 15 nM | fold elevated MIC compared to the wild type strain ([7]; Ser to Pro mutation at position 29 of SpsIB): 32 fold | MIC [7, 37]: 8 µg/mL (≈ 9.08 µM) | minimal inhibitory concentration (MIC) [8]: 4 | MIC [9]: 16 µg/mL (≈ 18.2 µM) | MIC ([9]; Streptococcus pneumoniae, R800, read-out: MIC): 8 µg/mL (≈ 9.08 µM) | MIC ([9]; listed as arylomycin A-C16): 8 µg/mL (≈ 9.08 µM) | MIC [10]: 16 µg/mL (≈ 18.2 µM) | minimal inhibitory concentration (MIC) [11]: 2 | MIC [12]: > 16 µg/mL | MIC [13]: > 16 µg/mL | MIC [14]: 16 to 32 µg/mL | MIC [15]: 4 µg/mL (≈ 4.54 µM) | MIC [16]: > 128 µg/mL | MIC [17]: > 128 µg/mL | MIC [18]: > 64 µg/mL | fold decrease of MIC on permeabilization [19]: ≤ 4 fold | MIC [20]: > 16 µg/mL | MIC ([21]; Pseudomonas aeruginosa, PAO1, Resistant strain (wild type), read-out: MIC): > 64 µg/mL | MIC ([21]; Resistant strain (wild type)): >128 µg/mL | MIC ([22]; Pseudomonas aeruginosa, PAO1, Sensitive (genetically sensitized) strain, read-out: MIC): 8 µg/mL | minimal inhibitory concentration (MIC) [22, 38]: 4 | MIC [23]: 25 µg/mL (≈ 28.4 µM) | MIC [24]: 16 µg/mL (≈ 18.2 µM) | MIC [25]: > 64 µg/mL | MIC [26]: 2 µg/mL (≈ 2.27 µM) | MIC [27]: 16 µg/mL (≈ 18.2 µM) | Kd [28]: 979 ± 69 nM | MIC [29]: 6 µg/mL (≈ 6.81 µM) | MIC [30]: > 16 µg/mL | Kd [31]: 130 ± 53 nM | MIC [32]: > 128 µg/mL | MIC [33]: > 128 µg/mL | MIC [34]: 0.25 µg/mL (≈ 0.284 µM) | MIC ([34]; listed as arylomycin C16): 0.25 µg/mL (≈ 0.284 µM) | MIC [34, 37]: 0.5 µg/mL (≈ 0.567 µM) | minimal inhibitory concentration (MIC) [34, 38]: 0.25 | MIC ([35]; 'Phe or His' variant (temperature sensitive)): 2 µg/mL (≈ 2.27 µM) | MIC ([35]; His variant (temperature sensitive)): 4 µg/mL (≈ 4.54 µM) | MIC ([35]; Pro at SPase residue 84): > 256 µg/mL | MIC ([35]; all of the other amino acids at residue 84): ≤ 16 µg/mL | Kd [36]: 1280 ± 278 nM

Reference: patent US20160297851A1, “BROAD SPECTRUM […]” (priority 2012, published 2016)
